Data set [1] deals with post-hypoxic myoclonus (auditory stimulus-induced myoclonic jerks). Nature of the data set: rat cardiac arrest model of post-hypoxic myoclonus. It is filed as in vivo, male Sprague-Dawley rats. The note with it: ip at 10, 30, 100 and 300 mg/kg, 48 hours after cardiac arrest; myoclonus score over 3 hours. How it is done: Brivaracetam is evaluated in a rat model of post-hypoxic myoclonus [Truong et al. (1994) Novel rat cardiac arrest model of post-hypoxic myoclonus. Mov. Disord. 9:201-206]. In this model, male Sprague-Dawley rats are subjected to mechanical-induced cardiac arrest for a short duration of time during which cerebral hypoxic insults are induced.
All surgical procedures are performed under deep anaesthesia (ketamine 85 mg/kg ip and xylazine 15 mg/kg ip). The cardiac arrest is initiated and maintained for a duration of 8 minutes by mechanically obstructing all the major cardiac blood vessels including the aorta by hooking up the vessels with an L-shaped loop inserted into the rat body cavity. […]
These animals show jerking movements in response to auditory stimuli and other features of myoclonus that are similar to those observed in human condition. […] The involuntary muscle jerks in response to each stimulus are scored as follows: 0=no jerks; 1=ear twitch; 2=ear and body jerk; 3=ear, head and shoulder jerk; 4=whole body jerk; and 5=whole body jerk with jumping.
Antimyoclonic activity of Brivaracetam, administered ip at 10, 30, 100 and 300 mg/kg, is evaluated 48 hours after the cardiac arrest. The myoclonus score is recorded at 30 min interval over a period of 3 hours after dosing, in groups of 6 rats per dose.

In data set [2] the test system is maximal electroshock seizures (MES). Nature of the data set: maximal electroshock seizures (MES) in mice. It is filed as in vivo, male NMRI mice. The following applies: i.p. -30 min, 95% confidence interval in parentheses. Here is the method:
(§1) The effect of Brivaracetam against maximal electroshock seizures (MES) and pentylenetetrazol (PTZ) seizures is evaluated in male NMRI mice (20-30 g; N=10 per group). MES is induced through corneal electrodes delivering a current of 50 mA for a duration 0.2 s inducing tonic hind limb extension in 100% of saline-treated animals.
(§2) PTZ is administered at a dose of 89 mg/kg s.c. which represents a dose inducing clonic convulsions of all four extremities in 97% of saline-treated animals. The mice are pre-treated with either saline or different doses of Brivaracetam (i.p. adm., −30 min.) and the proportion of mice protected against seizures is recorded.

The subject of data set [3] is pentylenetetrazol (PTZ) seizures. Nature of the data set: pentylenetetrazol (PTZ) seizures in mice. Format: in vivo, male NMRI mice. The following applies: PTZ 89 mg/kg s.c., i.p. -30 min, 95% confidence interval in parentheses. How it is done: as §1, §2
The next data set has as its system audiogenic seizures. Nature of the data set: audiogenic seizures in sound-sensitive mice. Format: in vivo, male genetically sound-sensitive mice. The following applies: i.p. -30 min, 95% confidence interval in parentheses. Here is the method:
Brivaracetam is tested in male genetically sound-sensitive mice (16-28 g; N=10 per group) responding with wild running, clonic and tonic convulsions to an acoustic stimulation. Audiogenic seizures are induced by an acoustic stimulus (90 dB, 10-20 kHz) applied for 30 s. The mice are pre-treated with either saline or different doses of Brivaracetam (i.p. adm., −30 min.) and the proportion of mice protected against both clonic and tonic convulsions is used as the end point to assess anticonvulsant activity.

Data set [4] deals with spontaneous spike-and-wave discharges (SWDs). Nature of the data set: spike-and-wave discharges in Genetic Absence Epilepsy Rats from Strasbourg. It is filed as in vivo, male rats from the Genetic Absence Epilepsy Rat Strain. The note with it: 95% confidence interval in parentheses. How it is done:
Male rats from the Genetic Absence Epilepsy Rat Strain are implanted with four platinum electrodes into the left and right frontal cortex and left and right occipital cortex, under pentobarbital anaesthesia. Cortical, spontaneous spike-and-wave discharges (SWDs) are recorded bilaterally from the rats placed into Plexiglass boxes, and prevented for falling asleep by gentle sensory stimulation. After a 20-min habituation period, the rats are injected i.p. with either saline or different doses of Brivaracetam and the EEG recorded continuously over consecutive 20-min intervals up to 120 min. The cumulative duration of the SWDs is calculated.

Data set [5] is described as follows: plasma levels of brivaracetam in the PPR study. Format: in vivo. The following applies: human. How it is done:
The aim of the placebo-controlled, single blind, multi-centre study is to explore the photoparoxysmal EEG (Electroencephalogram) response (PPR) in photosensitive epileptic subjects after one single oral dose (10, 20, 40 and 80 mg) of brivaracetam (BRV).
In the study, nineteen Caucasian subjects with photosensitive epilepsy (15 females, 4 males) with stable PPR in at least one eye condition (eyes open, eyes closed, eye closure) are enrolled. During a 3-day period, subjects underwent standardized intermittent photic stimulation (IPS) at different frequencies to define the standard photosensitivity range (SPR) in frequency steps per subject at fixed time points over the day: predose (−0.5 h) and postdose (1, 2, 4, 6, 8, 24, 28, 32, 48, and 72 h). After the placebo baseline day (day 1), single oral doses of BRV are given, starting at 80 mg, with subsequent lowering or increasing of the dose depending on the results per 4 subjects.
Median time to first response is 0.5 hours for all doses, and median duration of response is approximately 28 hours after 10, 20, or 40 mg BRV. The median duration is longer after 80 mg BRV (59.5 h). Time to maximal reduction in SPR is dose related: 1.5, 1.0, 1.0, and 0.5 hours, respectively, for 10, 20, 40, and 80 mg BRV. Plasma levels of brivaracetam (BRV) reach a peak at approximately 2.0 hours. T1/2 is about 8.5 hours. Effect of BRV is still frequently observable with BRV plasma levels below the lower level of quantification.

Read-outs that look alike come from different tables or passages of the source.

As for `CCC[C@@H]1CC(=O)N([C@@H](CC)C(N)=O)C1` [Brivaracetam, (2S)-2-[(4R)-2-oxo-4-propylpyrrolidinyl]butanamide], the Antimyoclonic activity entry in data set [1] is on record as “active”. Further, the “Protective effect ED50 value, tonic hind limb extension” value in data set [2] is recorded as 113 (89-136) mg/kg i.p. Besides, the figures for the “Protective effect ED50 value, clonic convulsions” value (in data set [3]; in the data set on audiogenic seizures) were 30 (10-87) mg/kg i.p and 2.4 (1.4-4.0) mg/kg i.p, respectively. Further, the “Protective effect ED50 value, tonic convulsions” value in the data set with audiogenic seizures is listed as 1.4 (0.9-2.1) mg/kg i.p. For the same molecule, the “Protective effect ED50 value, duration of spike-and-wave discharges over 2 hours” value in data set [4] is recorded as 2.6 (0.85-8.1) mg/kg i.p. Besides, the half-life in data set [5] (both sexes, plasma, single oral dose, read-out: T1/2 (converted)) is around 8.5 h; in data set [5] (in vivo, stated as basis of expected effect duration, read-out: half-life of the compound (converted)), around 7.7 h. The “Time of peak plasma levels” value in data set [5] (single oral dose) is on record as “approximately 2.0 hours”.

The values above are taken from US20090131508A1, “Use of 2-Oxo-1-Pyrrolidone Derivatives for the Preparation of a Drug” (UCB PHARMA, S.A., priority 2005, published 2009).
